Source: publication PMC11017388 (ACS Medicinal Chemistry Letters, 2024)

Molecular target: plasma kallikrein (PKa) (Homo sapiens, UniProt P03952)
Experiment: Isolated enzyme potency against PKa, IC50 after enzyme/inhibitor preincubation time course
Settings: read-out: PKa IC50; 1 min preincubation

plasma kallikrein (PKa), sequence (P03952 391-638 limits assumed): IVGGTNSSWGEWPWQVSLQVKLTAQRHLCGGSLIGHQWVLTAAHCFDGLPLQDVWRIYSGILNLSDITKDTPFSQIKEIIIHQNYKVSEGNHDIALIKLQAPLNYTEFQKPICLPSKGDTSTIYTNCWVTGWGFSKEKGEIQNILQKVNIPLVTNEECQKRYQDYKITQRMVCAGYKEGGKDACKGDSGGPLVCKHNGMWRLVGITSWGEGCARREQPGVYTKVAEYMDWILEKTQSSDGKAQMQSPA
plasma kallikrein (PKa), sequence (P03952 20-390 partner limits assumed): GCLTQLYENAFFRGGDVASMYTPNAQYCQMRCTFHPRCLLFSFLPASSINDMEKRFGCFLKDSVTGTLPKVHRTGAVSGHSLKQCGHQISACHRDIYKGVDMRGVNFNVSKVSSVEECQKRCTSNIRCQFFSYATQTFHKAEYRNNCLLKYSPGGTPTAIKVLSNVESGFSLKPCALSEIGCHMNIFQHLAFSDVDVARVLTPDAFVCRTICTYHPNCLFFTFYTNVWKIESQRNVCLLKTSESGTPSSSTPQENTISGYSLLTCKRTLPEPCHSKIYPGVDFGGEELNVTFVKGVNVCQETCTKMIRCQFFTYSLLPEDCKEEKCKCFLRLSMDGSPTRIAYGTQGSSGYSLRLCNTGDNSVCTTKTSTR

IC50 | Compound
199 nM | Cc1ccc(CNC(=O)c2cnn(Cc3ccc(Cn4cccn4)cc3)c2)c(F)c1 [Compound 26]
94 nM | Cc1ccc(C(NC(=O)c2cnn(Cc3ccc(Cn4ccccc4=O)cc3)c2)B2OC(C)(C)C(C)(C)O2)c(F)c1 (centres unmarked) [Compound 21]

Same assay, conditions: read-out: PKa IC50; 10 min preincubation

IC50 | Compound
203 nM | Cc1ccc(CNC(=O)c2cnn(Cc3ccc(Cn4cccn4)cc3)c2)c(F)c1 [Compound 26]
17 nM | Cc1ccc(C(NC(=O)c2cnn(Cc3ccc(Cn4ccccc4=O)cc3)c2)B2OC(C)(C)C(C)(C)O2)c(F)c1 (centres unmarked) [Compound 21]

Same assay, conditions: read-out: PKa IC50; 60 min preincubation

IC50 | Compound
196 nM | Cc1ccc(CNC(=O)c2cnn(Cc3ccc(Cn4cccn4)cc3)c2)c(F)c1 [Compound 26]
1.9 nM | Cc1ccc(C(NC(=O)c2cnn(Cc3ccc(Cn4ccccc4=O)cc3)c2)B2OC(C)(C)C(C)(C)O2)c(F)c1 (centres unmarked) [Compound 21]

Molecular target: FXIa (Homo sapiens, UniProt P03951)
Sequence (P03951 388-625 limits assumed): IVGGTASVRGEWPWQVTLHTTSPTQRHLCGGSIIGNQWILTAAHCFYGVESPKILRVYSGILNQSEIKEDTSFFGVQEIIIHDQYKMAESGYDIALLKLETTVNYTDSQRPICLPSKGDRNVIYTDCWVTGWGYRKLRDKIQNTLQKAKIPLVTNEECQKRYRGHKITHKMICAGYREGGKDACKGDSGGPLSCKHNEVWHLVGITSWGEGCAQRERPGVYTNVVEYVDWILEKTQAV
Sequence (P03951 19-387 partner limits assumed): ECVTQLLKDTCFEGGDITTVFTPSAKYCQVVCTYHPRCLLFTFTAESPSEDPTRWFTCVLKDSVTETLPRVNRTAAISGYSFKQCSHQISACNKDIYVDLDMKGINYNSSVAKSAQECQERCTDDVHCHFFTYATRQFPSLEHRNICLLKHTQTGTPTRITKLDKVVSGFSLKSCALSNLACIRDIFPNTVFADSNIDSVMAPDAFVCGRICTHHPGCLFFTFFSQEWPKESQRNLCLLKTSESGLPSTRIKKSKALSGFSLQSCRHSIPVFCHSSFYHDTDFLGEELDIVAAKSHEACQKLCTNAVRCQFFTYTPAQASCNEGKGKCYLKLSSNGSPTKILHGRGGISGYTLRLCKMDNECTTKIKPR
Experiment: Time-dependent potency determination against FXIa
Type: biochemical
Settings: 1 min preincubation
Description: S5: Pharmacology: Material and Methods :

IC50 | Compound
> 40 µM | Cc1ccc(C(CC(=O)c2cnn(Cc3ccc(Cn4cccn4)cc3)c2)B2OC(C)(C)C(C)(C)O2)c(F)c1 (centres unmarked) [Compound 32]
> 40 µM | Cc1ccc(CNC(=O)c2cnn(Cc3ccc(Cn4cccn4)cc3)c2)c(F)c1 [Compound 26]
> 40 µM | CC1(C)OB(C(CC(=O)c2cnn(Cc3ccc(Cn4cccn4)cc3)c2)c2cccc(Cl)c2)OC1(C)C (centres unmarked) [Compound 31]
> 40 µM | CC1(C)OB(C(NC(=O)c2cnn(Cc3ccc(Cn4cccn4)cc3)c2)c2cccc(Cl)c2)OC1(C)C (centres unmarked) [Compound 19]

Compound | IC50
D-Phe-Pro-Arg-chloromethylketone [Compound 23, reference compound] | > 40 µM

Same assay, conditions: 10 min preincubation

IC50 | Compound
> 40 µM | Cc1ccc(C(CC(=O)c2cnn(Cc3ccc(Cn4cccn4)cc3)c2)B2OC(C)(C)C(C)(C)O2)c(F)c1 (centres unmarked) [Compound 32]
> 40 µM | Cc1ccc(CNC(=O)c2cnn(Cc3ccc(Cn4cccn4)cc3)c2)c(F)c1 [Compound 26]
> 40 µM | CC1(C)OB(C(CC(=O)c2cnn(Cc3ccc(Cn4cccn4)cc3)c2)c2cccc(Cl)c2)OC1(C)C (centres unmarked) [Compound 31]
> 40 µM | CC1(C)OB(C(NC(=O)c2cnn(Cc3ccc(Cn4cccn4)cc3)c2)c2cccc(Cl)c2)OC1(C)C (centres unmarked) [Compound 19]

Compound | IC50
D-Phe-Pro-Arg-chloromethylketone [Compound 23, reference compound] | > 40 µM

Same assay, conditions: 60 min preincubation

IC50 | Compound
> 40 µM | Cc1ccc(C(CC(=O)c2cnn(Cc3ccc(Cn4cccn4)cc3)c2)B2OC(C)(C)C(C)(C)O2)c(F)c1 (centres unmarked) [Compound 32]
> 40 µM | Cc1ccc(CNC(=O)c2cnn(Cc3ccc(Cn4cccn4)cc3)c2)c(F)c1 [Compound 26]
> 40 µM | CC1(C)OB(C(CC(=O)c2cnn(Cc3ccc(Cn4cccn4)cc3)c2)c2cccc(Cl)c2)OC1(C)C (centres unmarked) [Compound 31]
> 40 µM | CC1(C)OB(C(NC(=O)c2cnn(Cc3ccc(Cn4cccn4)cc3)c2)c2cccc(Cl)c2)OC1(C)C (centres unmarked) [Compound 19]

Compound | IC50
D-Phe-Pro-Arg-chloromethylketone [Compound 23, reference compound] | > 40 µM

Molecular target: Thrombin (Homo sapiens, UniProt P00734)
Experiment: Time-dependent potency determination against thrombin
Settings: not given

IC50 | Compound
> 40 µM | Cc1ccc(C(CC(=O)c2cnn(Cc3ccc(Cn4cccn4)cc3)c2)B2OC(C)(C)C(C)(C)O2)c(F)c1 (centres unmarked) [Compound 32]
> 40 µM | Cc1ccc(CNC(=O)c2cnn(Cc3ccc(Cn4cccn4)cc3)c2)c(F)c1 [Compound 26]
> 40 µM | CC1(C)OB(C(CC(=O)c2cnn(Cc3ccc(Cn4cccn4)cc3)c2)c2cccc(Cl)c2)OC1(C)C (centres unmarked) [Compound 31]
> 40 µM | CC1(C)OB(C(NC(=O)c2cnn(Cc3ccc(Cn4cccn4)cc3)c2)c2cccc(Cl)c2)OC1(C)C (centres unmarked) [Compound 19]

Same assay, conditions: read-out: Thrombin IC50; 10 min preincubation

IC50 | Compound
> 40 µM | Cc1ccc(C(CC(=O)c2cnn(Cc3ccc(Cn4cccn4)cc3)c2)B2OC(C)(C)C(C)(C)O2)c(F)c1 (centres unmarked) [Compound 32]
> 40 µM | Cc1ccc(CNC(=O)c2cnn(Cc3ccc(Cn4cccn4)cc3)c2)c(F)c1 [Compound 26]
> 40 µM | CC1(C)OB(C(CC(=O)c2cnn(Cc3ccc(Cn4cccn4)cc3)c2)c2cccc(Cl)c2)OC1(C)C (centres unmarked) [Compound 31]
> 40 µM | CC1(C)OB(C(NC(=O)c2cnn(Cc3ccc(Cn4cccn4)cc3)c2)c2cccc(Cl)c2)OC1(C)C (centres unmarked) [Compound 19]

Same assay, conditions: read-out: Thrombin IC50; 60 min preincubation

IC50 | Compound
> 40 µM | Cc1ccc(C(CC(=O)c2cnn(Cc3ccc(Cn4cccn4)cc3)c2)B2OC(C)(C)C(C)(C)O2)c(F)c1 (centres unmarked) [Compound 32]
> 40 µM | Cc1ccc(CNC(=O)c2cnn(Cc3ccc(Cn4cccn4)cc3)c2)c(F)c1 [Compound 26]
> 40 µM | CC1(C)OB(C(CC(=O)c2cnn(Cc3ccc(Cn4cccn4)cc3)c2)c2cccc(Cl)c2)OC1(C)C (centres unmarked) [Compound 31]
> 40 µM | CC1(C)OB(C(NC(=O)c2cnn(Cc3ccc(Cn4cccn4)cc3)c2)c2cccc(Cl)c2)OC1(C)C (centres unmarked) [Compound 19]

Molecular target: phosophodiesterase 4 (PDE4) enzyme
Experiment: not given
Set-up: method as in PMID 19303290
Settings: read-out: potency; cited from earlier work

Compound | IC50
N#Cc1ccc(Oc2ccc3c(c2)COB3O)cc1 [Crisaborole] | 490 nM

System: not given
Experiment: not given
Set-up: method as in PMID 34282650
Settings: 150 mg daily dose, clinical studies; cited from earlier work

Compound | Efficacy as an oral prophylactic for HAE
N#Cc1cccc([C@@H](NCC2CC2)c2ccc(F)c(NC(=O)c3cc(C(F)(F)F)nn3-c3cccc(CN)c3)c2)c1 [berotralstat] | efficacious

Molecular target: Plasmin (Homo sapiens, UniProt P00747)
Sequence (P00747 581-810 limits assumed, species assumed): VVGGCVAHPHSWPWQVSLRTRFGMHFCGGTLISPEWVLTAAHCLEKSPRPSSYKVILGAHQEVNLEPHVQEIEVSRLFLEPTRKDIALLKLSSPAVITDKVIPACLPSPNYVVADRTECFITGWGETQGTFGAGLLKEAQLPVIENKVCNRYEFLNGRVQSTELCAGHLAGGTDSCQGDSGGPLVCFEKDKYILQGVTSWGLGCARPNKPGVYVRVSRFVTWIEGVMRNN
Sequence (P00747 97-580 partner limits assumed, species assumed): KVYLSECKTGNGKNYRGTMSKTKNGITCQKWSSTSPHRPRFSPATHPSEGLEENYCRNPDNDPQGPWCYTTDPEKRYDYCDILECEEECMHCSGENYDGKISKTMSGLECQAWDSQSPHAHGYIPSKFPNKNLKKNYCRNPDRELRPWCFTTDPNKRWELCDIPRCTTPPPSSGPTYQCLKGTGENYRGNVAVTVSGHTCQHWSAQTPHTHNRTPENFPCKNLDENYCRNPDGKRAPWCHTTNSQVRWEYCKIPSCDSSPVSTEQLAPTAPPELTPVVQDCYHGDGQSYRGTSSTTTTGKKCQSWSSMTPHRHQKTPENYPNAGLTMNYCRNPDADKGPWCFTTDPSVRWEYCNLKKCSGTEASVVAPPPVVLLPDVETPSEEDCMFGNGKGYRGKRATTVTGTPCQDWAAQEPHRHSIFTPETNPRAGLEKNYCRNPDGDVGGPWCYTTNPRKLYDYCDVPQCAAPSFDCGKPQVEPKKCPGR
Experiment: Time-dependent potency determination against plasmin
Settings: Plasmin IC50, 1 min preincubation

IC50 | Compound
> 40 µM | Cc1ccc(C(CC(=O)c2cnn(Cc3ccc(Cn4cccn4)cc3)c2)B2OC(C)(C)C(C)(C)O2)c(F)c1 (centres unmarked) [Compound 32]
> 40 µM | Cc1ccc(CNC(=O)c2cnn(Cc3ccc(Cn4cccn4)cc3)c2)c(F)c1 [Compound 26]
> 40 µM | CC1(C)OB(C(CC(=O)c2cnn(Cc3ccc(Cn4cccn4)cc3)c2)c2cccc(Cl)c2)OC1(C)C (centres unmarked) [Compound 31]
> 40 µM | CC1(C)OB(C(NC(=O)c2cnn(Cc3ccc(Cn4cccn4)cc3)c2)c2cccc(Cl)c2)OC1(C)C (centres unmarked) [Compound 19]

Same assay, conditions: Plasmin IC50, 10 min preincubation

IC50 | Compound
> 40 µM | Cc1ccc(C(CC(=O)c2cnn(Cc3ccc(Cn4cccn4)cc3)c2)B2OC(C)(C)C(C)(C)O2)c(F)c1 (centres unmarked) [Compound 32]
> 40 µM | Cc1ccc(CNC(=O)c2cnn(Cc3ccc(Cn4cccn4)cc3)c2)c(F)c1 [Compound 26]
> 40 µM | CC1(C)OB(C(CC(=O)c2cnn(Cc3ccc(Cn4cccn4)cc3)c2)c2cccc(Cl)c2)OC1(C)C (centres unmarked) [Compound 31]
> 40 µM | CC1(C)OB(C(NC(=O)c2cnn(Cc3ccc(Cn4cccn4)cc3)c2)c2cccc(Cl)c2)OC1(C)C (centres unmarked) [Compound 19]

Same assay, conditions: Plasmin IC50, 60 min preincubation

IC50 | Compound
> 40 µM | Cc1ccc(C(CC(=O)c2cnn(Cc3ccc(Cn4cccn4)cc3)c2)B2OC(C)(C)C(C)(C)O2)c(F)c1 (centres unmarked) [Compound 32]
> 40 µM | Cc1ccc(CNC(=O)c2cnn(Cc3ccc(Cn4cccn4)cc3)c2)c(F)c1 [Compound 26]
> 40 µM | CC1(C)OB(C(CC(=O)c2cnn(Cc3ccc(Cn4cccn4)cc3)c2)c2cccc(Cl)c2)OC1(C)C (centres unmarked) [Compound 31]
> 40 µM | CC1(C)OB(C(NC(=O)c2cnn(Cc3ccc(Cn4cccn4)cc3)c2)c2cccc(Cl)c2)OC1(C)C (centres unmarked) [Compound 19]

Same assay, conditions: read-out: Plasmin IC50; 1 min preincubation

Compound | IC50
D-Phe-Pro-Arg-chloromethylketone [Compound 23, reference compound] | 3.64 µM

Same assay, conditions: read-out: Plasmin IC50; 10 min preincubation

Compound | IC50
D-Phe-Pro-Arg-chloromethylketone [Compound 23, reference compound] | 1.22 µM

Same assay, conditions: read-out: Plasmin IC50; 60 min preincubation

Compound | IC50
D-Phe-Pro-Arg-chloromethylketone [Compound 23, reference compound] | 0.248 µM

Molecular target: T1, FXIIa (Homo sapiens, UniProt P00748)
T1 sequence (P00748 373-615 limits assumed): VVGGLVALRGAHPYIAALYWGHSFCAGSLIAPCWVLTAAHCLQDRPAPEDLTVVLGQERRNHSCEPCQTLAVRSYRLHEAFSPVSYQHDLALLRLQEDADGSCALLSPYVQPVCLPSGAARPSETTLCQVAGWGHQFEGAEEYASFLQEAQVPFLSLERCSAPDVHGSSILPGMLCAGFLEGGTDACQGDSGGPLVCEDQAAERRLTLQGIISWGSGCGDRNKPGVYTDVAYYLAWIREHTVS
Experiment: Isolated enzyme potency against FXIIa, preincubation time course
Settings: read-out: FXIIa IC50; 5 min preincubation

IC50 | Compound
> 400 µM | CC1(C)OB(C(NC(=O)c2cnn(Cc3ccccc3)c2)c2cccc(Cl)c2)OC1(C)C (centres unmarked) [Compound 17a]

Same assay, conditions: read-out: FXIIa IC50; 60 min preincubation

IC50 | Compound
> 400 µM | CC1(C)OB(C(NC(=O)c2cnn(Cc3ccccc3)c2)c2cccc(Cl)c2)OC1(C)C (centres unmarked) [Compound 17a]

Molecular target: PKa (Homo sapiens, UniProt P03952)
Sequence (P03952 391-638 limits assumed): as the sequence (P03952 391-638 limits assumed) above
Sequence (P03952 20-390 partner limits assumed): as the sequence (P03952 20-390 partner limits assumed) above
Experiment: Compound dissociation assay (jump dilution)
Settings: 62.5-fold dilution after 10 min preincubation; monitored over 600 s with fluorogenic substrate

Inhibitor dissociation from PKa | Compound
rapid dissociation | Cc1ccc(CNC(=O)c2cnn(Cc3ccc(Cn4cccn4)cc3)c2)c(F)c1 [Compound 26]

System: Trypsin
Experiment: Time-dependent potency determination against trypsin
Settings: read-out: Trypsin IC50; 1 min preincubation

IC50 | Compound
> 40 µM | Cc1ccc(CNC(=O)c2cnn(Cc3ccc(Cn4cccn4)cc3)c2)c(F)c1 [Compound 26]

Same assay, conditions: read-out: Trypsin IC50; 10 min preincubation

IC50 | Compound
> 40 µM | Cc1ccc(CNC(=O)c2cnn(Cc3ccc(Cn4cccn4)cc3)c2)c(F)c1 [Compound 26]

Same assay, conditions: read-out: Trypsin IC50; 60 min preincubation

IC50 | Compound
> 40 µM | Cc1ccc(CNC(=O)c2cnn(Cc3ccc(Cn4cccn4)cc3)c2)c(F)c1 [Compound 26]
